pIC50: −log10 of the molar value.
Assays:
OVCAR-8 = experiment: Growth inhibition of human OVCAR8 cells incubated for 48 hrs by sulforhodamine B assay; format: functional, cell-based; conditions: OVCAR-8, 48 h
U-251 [1] = experiment: Growth inhibition of human U251 cells assessed as cell growth at 1 uM incubated for 48 hrs by sulforhodamine B assay relative to control; format: functional; conditions: U-251, 48 h, read-out: Activity
NCI-H460 [2] = experiment: Growth inhibition of human NCI-H460 cells assessed as cell growth at 1 uM incubated for 48 hrs by sulforhodamine B assay relative to control; format: functional; conditions: NCI-H460, 48 h, read-out: Activity
HCT-116 [3] = experiment: Growth inhibition of human HCT116 cells assessed as cell growth at 100 uM incubated for 48 hrs by sulforhodamine B assay relative to control; format: functional; conditions: HCT-116, 48 h, read-out: Activity
NCI/ADR-RES [4] = experiment: Growth inhibition of human NCI/ADR-RES cells incubated for 48 hrs by sulforhodamine B assay; format: functional, cell-based
ACHN = experiment: Growth inhibition of human ACHN cells assessed as cell growth at 100 uM incubated for 48 hrs by sulforhodamine B assay relative to control; format: functional; conditions: read-out: Activity
HCT-116 [5] = experiment: Growth inhibition of human HCT116 cells assessed as cell growth at 1 uM incubated for 48 hrs by sulforhodamine B assay relative to control; format: functional; conditions: HCT-116, 48 h, read-out: Activity
NCI-H522 = experiment: Growth inhibition of human NCI-H522 cells incubated for 48 hrs by sulforhodamine B assay; format: functional, cell-based; conditions: NCI-H522, 48 h
MDA-MB-435 = experiment: Growth inhibition of human MDA-MB-435 cells assessed as cell growth at 0.1 uM incubated for 48 hrs by sulforhodamine B assay relative to control; format: functional; conditions: MDA-MB-435, 48 h, read-out: Activity
Malme-3M = experiment: Growth inhibition of human MALME-3M cells incubated for 48 hrs by sulforhodamine B assay; format: functional, cell-based
SW-620 [6] = experiment: Growth inhibition of human SW620 cells assessed as cell growth at 1 uM incubated for 48 hrs by sulforhodamine B assay relative to control; format: functional; conditions: SW-620, 48 h, read-out: Activity
SW-620 [7] = experiment: Growth inhibition of human SW620 cells assessed as cell growth at 100 uM incubated for 48 hrs by sulforhodamine B assay relative to control; format: functional; conditions: SW-620, 48 h, read-out: Activity
BT-549 [8] = experiment: Growth inhibition of human BT549 cells assessed as cell growth at 100 uM incubated for 48 hrs by sulforhodamine B assay relative to control; format: functional; conditions: BT-549, 48 h, read-out: Activity
CAKI-1 [9] = experiment: Growth inhibition of human Caki1 cells assessed as cell growth at 0.01 uM incubated for 48 hrs by sulforhodamine B assay relative to control; format: functional; conditions: CAKI-1, 48 h, read-out: Activity
HCT-15 [10] = experiment: Growth inhibition of human HCT15 cells assessed as cell growth at 1 uM incubated for 48 hrs by sulforhodamine B assay relative to control; format: functional; conditions: HCT-15, 48 h, read-out: Activity
CAKI-1 [11] = experiment: Growth inhibition of human Caki1 cells assessed as cell growth at 100 uM incubated for 48 hrs by sulforhodamine B assay relative to control; format: functional; conditions: CAKI-1, 48 h, read-out: Activity
RPMI-8226 = experiment: Growth inhibition of human RPMI8226 cells incubated for 48 hrs by sulforhodamine B assay; format: functional, cell-based; conditions: RPMI-8226, 48 h
KM12 = experiment: Growth inhibition of human KM12 cells assessed as cell growth at 100 uM incubated for 48 hrs by sulforhodamine B assay relative to control; format: functional; conditions: KM12, 48 h, read-out: Activity
NCI-H460 [12] = experiment: Growth inhibition of human NCI-H460 cells assessed as cell growth at 0.01 uM incubated for 48 hrs by sulforhodamine B assay relative to control; format: functional; conditions: NCI-H460, 48 h, read-out: Activity
M14 = experiment: Growth inhibition of human M14 cells assessed as cell growth at 1 uM incubated for 48 hrs by sulforhodamine B assay relative to control; format: functional; conditions: M14, 48 h, read-out: Activity
A498 = experiment: Growth inhibition of human A498 cells assessed as cell growth at 0.1 uM incubated for 48 hrs by sulforhodamine B assay relative to control; format: functional; conditions: A498, 48 h, read-out: Activity
Hs-578T = experiment: Growth inhibition of human Hs578T cells assessed as cell growth at 0.01 uM incubated for 48 hrs by sulforhodamine B assay relative to control; format: functional; conditions: read-out: Activity
NCI/ADR-RES [13] = experiment: Growth inhibition of human NCI/ADR-RES cells assessed as cell growth at 0.01 uM incubated for 48 hrs by sulforhodamine B assay relative to control; format: functional; conditions: read-out: Activity
SF-539 = experiment: Growth inhibition of human SF539 cells assessed as cell growth at 0.1 uM incubated for 48 hrs by sulforhodamine B assay relative to control; format: functional; conditions: SF-539, 48 h, read-out: Activity
SK-MEL-28 = experiment: Growth inhibition of human SK-MEL-28 cells assessed as cell growth at 0.01 uM incubated for 48 hrs by sulforhodamine B assay relative to control; format: functional; conditions: SK-MEL-28, 48 h, read-out: Activity
BT-549 [14] = experiment: Growth inhibition of human BT549 cells assessed as cell growth at 1 uM incubated for 48 hrs by sulforhodamine B assay relative to control; format: functional; conditions: BT-549, 48 h, read-out: Activity
T47D = experiment: Growth inhibition of human T47D cells assessed as cell growth at 100 uM incubated for 48 hrs by sulforhodamine B assay relative to control; format: functional; conditions: read-out: Activity
UO-31 = experiment: Growth inhibition of human UO31 cells assessed as cell growth at 0.01 uM incubated for 48 hrs by sulforhodamine B assay relative to control; format: functional; conditions: UO-31, 48 h, read-out: Activity
HCT-15 [15] = experiment: Growth inhibition of human HCT15 cells assessed as cell growth at 0.01 uM incubated for 48 hrs by sulforhodamine B assay relative to control; format: functional; conditions: HCT-15, 48 h, read-out: Activity
MOLT-4 = experiment: Growth inhibition of human MOLT4 cells assessed as cell growth at 0.1 uM incubated for 48 hrs by sulforhodamine B assay relative to control; format: functional; conditions: MOLT-4, 48 h, read-out: Activity
SR = experiment: Growth inhibition of human SR cells assessed as cell growth at 0.1 uM incubated for 48 hrs by sulforhodamine B assay relative to control; format: functional; conditions: read-out: Activity
U-251 [16] = experiment: Growth inhibition of human U251 cells assessed as cell growth at 0.01 uM incubated for 48 hrs by sulforhodamine B assay relative to control; format: functional; conditions: U-251, 48 h, read-out: Activity
[17] = read-out: LC50 (the source's name)
[18] = read-out: pLC50 (the source's name) (converted)

O=C(Nc1cccc(-n2cc(-c3ccncc3)c(-c3cc(O)cc(Cl)c3)n2)c1)Nc1ccc(Cl)c(Cl)c1
GI50 (OVCAR-8; read-out: GI50): 2.02 µM
CC50 (OVCAR-8; [17]): > 100 µM
TGI (OVCAR-8; read-out: TGI): 50.6 µM
GI50 (OVCAR-8; read-out: pGI50 (converted)): 2 µM
CC50 (OVCAR-8; [18]): > 100 µM
TGI (OVCAR-8; read-out: pTGI (converted)): 5.01 µM
growth at 1 µM (U-251 [1]): 74%
growth at 1 µM (NCI-H460 [2]): 58%
growth at 100 µM (HCT-116 [3]): -61%
GI50 (NCI/ADR-RES [4]; read-out: GI50): 3.21 µM
CC50 (NCI/ADR-RES [4]; [17]): > 100 µM
TGI (NCI/ADR-RES [4]; read-out: TGI): > 100 µM
GI50 (NCI/ADR-RES [4]; read-out: pGI50 (converted)): 3.24 µM
CC50 (NCI/ADR-RES [4]; [18]): > 100 µM
TGI (NCI/ADR-RES [4]; read-out: pTGI (converted)): > 100 µM
growth at 100 µM (ACHN): -33%
growth at 1 µM (HCT-116 [5]): 82%
GI50 (NCI-H522; read-out: GI50): 1.1 µM
CC50 (NCI-H522; [17]): 5.99 µM
TGI (NCI-H522; read-out: TGI): 31.4 µM
GI50 (NCI-H522; read-out: pGI50 (converted)): 1.1 µM
CC50 (NCI-H522; [18]): 8.91 µM
TGI (NCI-H522; read-out: pTGI (converted)): 3.16 µM
growth at 0.1 µM (MDA-MB-435): 93%
GI50 (Malme-3M; read-out: GI50): 1 µM
CC50 (Malme-3M; [17]): > 100 µM
TGI (Malme-3M; read-out: TGI): 54 µM
GI50 (Malme-3M; read-out: pGI50 (converted)): 1.78 µM
CC50 (Malme-3M; [18]): > 100 µM
TGI (Malme-3M; read-out: pTGI (converted)): 5.25 µM
growth at 1 µM (SW-620 [6]): 102%
growth at 100 µM (SW-620 [7]): -36%
growth at 100 µM (BT-549 [8]): -38%
growth at 0.01 µM (CAKI-1 [9]): 100%
growth at 1 µM (HCT-15 [10]): 75%
growth at 100 µM (CAKI-1 [11]): -12%
pIC50 (RPMI-8226): 5.84
GI50 (RPMI-8226; read-out: GI50): 1.44 µM
CC50 (RPMI-8226; [17]): > 100 µM
TGI (RPMI-8226; read-out: TGI): 43 µM
GI50 (RPMI-8226; read-out: pGI50 (converted)): 1.45 µM
CC50 (RPMI-8226; [18]): > 100 µM
TGI (RPMI-8226; read-out: pTGI (converted)): 4.27 µM
growth at 100 µM (KM12): -63%
growth at 0.01 µM (NCI-H460 [12]): 102%
growth at 1 µM (M14): 72%
growth at 0.1 µM (A498): 94%
growth at 0.01 µM (Hs-578T): 98%
growth at 0.01 µM (NCI/ADR-RES [13]): 109%
growth at 0.1 µM (SF-539): 95%
growth at 0.01 µM (SK-MEL-28): 108%
growth at 1 µM (BT-549 [14]): 89%
growth at 100 µM (T47D): -39%
growth at 0.01 µM (UO-31): 93%
growth at 0.01 µM (HCT-15 [15]): 59%
growth at 0.1 µM (MOLT-4): 94%
growth at 0.1 µM (SR): 90%
growth at 0.01 µM (U-251 [16]): 96%

From ChEMBL document CHEMBL4308841, “Synthesis, in vitro antiproliferative activity, and kinase inhibitory effects of pyrazole-containing diarylureas and diarylamides” (Eur J Med Chem, 2018)
